Assay type in all cases: functional
What all share (conditions): read-out: DIZ

For experiment [1], the system named is Bacillus subtilis. As to the kind of experiment: Antibacterial activity against Bacillus subtilis at 200 ug/ml.
Experiment [2] concerns Staphylococcus aureus. Nature of the experiment: Antibacterial activity against Staphylococcus aureus at 200 ug/ml.
For experiment [3], the system named is Escherichia coli. Nature of the experiment: Antibacterial activity against Escherichia coli at 200 ug/ml.
Experiment [4] deals with Pseudomonas aeruginosa. As to the kind of experiment: Antibacterial activity against Pseudomonas aeruginosa at 200 ug/ml.
Experiment [5] relates to Aspergillus niger. As to the kind of experiment: Antifungal activity against Aspergillus niger at 200 ug/ml.
Experiment [6] deals with Staphylococcus aureus. Nature of the experiment: Antibacterial activity against Staphylococcus aureus at 100 ug/ml.
The test system of experiment [7] is Pseudomonas aeruginosa. Nature of the experiment: Antibacterial activity against Pseudomonas aeruginosa at 50 ug/ml.
For experiment [8], the system named is Bacillus subtilis. Nature of the experiment: Antibacterial activity against Bacillus subtilis at 100 ug/ml.
Experiment [9] has as its system Candida albicans. As to the kind of experiment: Antifungal activity against Candida albicans at 100 ug/ml.
Experiment [10] relates to Pseudomonas aeruginosa. As to the kind of experiment: Antibacterial activity against Pseudomonas aeruginosa at 100 ug/ml.
The subject of experiment [11] is Escherichia coli. As to the kind of experiment: Antibacterial activity against Escherichia coli at 100 ug/ml.
Experiment [12] relates to Aspergillus niger. Nature of the experiment: Antifungal activity against Aspergillus niger at 100 ug/ml.
The subject of experiment [13] is Escherichia coli. As to the kind of experiment: Antibacterial activity against Escherichia coli at 50 ug/ml.
Experiment [14] deals with Staphylococcus aureus. As to the kind of experiment: Antibacterial activity against Staphylococcus aureus at 50 ug/ml.
In experiment [15] the test system is Candida albicans. As to the kind of experiment: Antifungal activity against Candida albicans at 200 ug/ml.
Experiment [16] has as its system Bacillus subtilis. As to the kind of experiment: Antibacterial activity against Bacillus subtilis at 50 ug/ml.

Our source for the zone of inhibition values is ChEMBL document CHEMBL3046672, “Synthesis and bioevaluation of Schiff and Mannich bases of isatin derivatives with 4-amino-5-benzyl-2,4-dihydro-3H-1,2,4-triazole-3-thione” (2012).

On to `O=C(O)c1cn(C2CC2)c2cc(N3CCNCC3)c(F)cc2c1=O` [CIPROFLOXACIN], for which the zone of inhibition at 200 µg/mL in the experiment on Bacillus subtilis [1] came to 25 mm; with Staphylococcus aureus [2], 26 mm; in the experiment with Escherichia coli [3], 30 mm; in the experiment with Pseudomonas aeruginosa [4], 28 mm.

As to `O=C1Nc2ccccc2/C1=N/n1c(Cc2ccccc2)n[nH]c1=S`, the zone of inhibition at 200 µg/mL in the experiment with Aspergillus niger [5] worked out at 14 mm; in the experiment on Bacillus subtilis [1], 20 mm; with Staphylococcus aureus [2], 22 mm; with Escherichia coli [3] it was 23 mm; in the experiment with Pseudomonas aeruginosa [4] it was 24 mm; in the experiment with Candida albicans [15], 15 mm. Moreover, the zone of inhibition at 100 µg/mL in the experiment with Staphylococcus aureus [6] is 16 mm; in the experiment on Bacillus subtilis [8], 15 mm; in the experiment with Candida albicans [9] it was 9 mm; with Pseudomonas aeruginosa [10] it was 16 mm; in the experiment on Escherichia coli [11], 19 mm; in the experiment with Aspergillus niger [12], 9 mm. Also, the zone of inhibition at 50 µg/mL in the experiment on Pseudomonas aeruginosa [7] stood at 13 mm; in the experiment on Escherichia coli [13], 12 mm; in the experiment on Staphylococcus aureus [14], 10 mm; with Bacillus subtilis [16], 9 mm.

On to `O=C1/C(=N\n2c(Cc3ccccc3)n[nH]c2=S)c2cc(Br)ccc2N1CN1CCOCC1`, for which the zone of inhibition at 200 µg/mL in the experiment with Aspergillus niger [5] was 12 mm; with Bacillus subtilis [1] it was 21 mm; in the experiment on Staphylococcus aureus [2] it was 20 mm; in the experiment on Escherichia coli [3], 24 mm; in the experiment on Pseudomonas aeruginosa [4], 24 mm; in the experiment with Candida albicans [15], 15 mm. For the same compound, the zone of inhibition at 100 µg/mL was found to be 13 mm with Staphylococcus aureus [6]; 12 mm in the experiment with Bacillus subtilis [8]; 10 mm in the experiment on Candida albicans [9]; 15 mm in the experiment with Pseudomonas aeruginosa [10]; 16 mm in the experiment with Escherichia coli [11]; 9 mm with Aspergillus niger [12]. Further, the zone of inhibition at 50 µg/mL came out at 10 mm in the experiment with Pseudomonas aeruginosa [7], 9 mm in the experiment on Escherichia coli [13], 9 mm with Staphylococcus aureus [14] and 9 mm in the experiment with Bacillus subtilis [16].

Take `O=C1Nc2ccc(Br)cc2/C1=N/n1c(Cc2ccccc2)n[nH]c1=S`: the zone of inhibition at 200 µg/mL came to 14 mm in the experiment with Aspergillus niger [5]; 20 mm in the experiment on Bacillus subtilis [1]; 20 mm with Staphylococcus aureus [2]; 27 mm in the experiment with Escherichia coli [3]; 25 mm in the experiment on Pseudomonas aeruginosa [4]; 17 mm in the experiment with Candida albicans [15]. Further, the zone of inhibition at 100 µg/mL in the experiment with Staphylococcus aureus [6] came to 12 mm; in the experiment on Bacillus subtilis [8] it was 15 mm; in the experiment with Candida albicans [9], 11 mm; in the experiment with Pseudomonas aeruginosa [10], 15 mm; in the experiment on Escherichia coli [11] it was 17 mm; with Aspergillus niger [12], 10 mm. In addition, the zone of inhibition at 50 µg/mL with Pseudomonas aeruginosa [7] was found to be 10 mm; in the experiment with Escherichia coli [13], 11 mm; in the experiment with Staphylococcus aureus [14], 9 mm; in the experiment on Bacillus subtilis [16], 9 mm.

As to `O=C1Nc2ccc(Cl)cc2/C1=N/n1c(Cc2ccccc2)n[nH]c1=S`, the zone of inhibition at 200 µg/mL in the experiment on Aspergillus niger [5] worked out at 12 mm; in the experiment on Bacillus subtilis [1] it was 20 mm; in the experiment on Staphylococcus aureus [2], 23 mm; in the experiment with Escherichia coli [3], 27 mm; in the experiment on Pseudomonas aeruginosa [4], 25 mm; with Candida albicans [15], 16 mm. The zone of inhibition at 100 µg/mL in the experiment on Staphylococcus aureus [6] was 11 mm; in the experiment on Bacillus subtilis [8], 14 mm; in the experiment on Candida albicans [9] it was 9 mm; in the experiment with Pseudomonas aeruginosa [10], 13 mm; with Escherichia coli [11] it was 18 mm; with Aspergillus niger [12], 9 mm. Besides, the results for the zone of inhibition at 50 µg/mL in the experiment on Pseudomonas aeruginosa [7], in the experiment with Escherichia coli [13] and in the experiment on Bacillus subtilis [16] were 9 mm, 11 mm and 9 mm, respectively.

Consider `OC(Cn1cncn1)(Cn1cncn1)c1ccc(F)cc1F` [FLUCONAZOLE], for which the zone of inhibition at 200 µg/mL worked out at 18 mm in the experiment on Aspergillus niger [5] and 20 mm in the experiment with Candida albicans [15].
